Laboratory results taken from PMC5869712 (Scientific Reports, 2018).

What was measured:
[1] = test system: DBA/1 mice with collagen-induced arthritis; assay: Collagen-induced arthritis mouse model: clinical score, histology, safety; assay type: in vivo; details: CIA mice; 30 mg/kg; model group 3.8; grades 0-4
Protocol: The animal protocol was approved by the Animal Care and Use Committee of Sichuan University in China (IACUC number: 20100318). DBA/1 J mice (male, 6 weeks old) were obtained from Jackson Laboratory (Bar Harbor, ME). One day before the start of the experiment, CII solution (2 mg/ml) was prepared with 0.05 M acetic acid and stored at 4 °C. Just before the immunization, equal volumes of IFA and CII were mixed by a homogenizer in a precooled glass bottle in an ice water bath. Arthritis was induced in 8-week old male DBA/1 mice by immunizations with a 1:1 emulsion of bovine type II collagen (Chondrex) and Freund’s complete adjuvant (Sigma-Aldrich) on day 0 and with a 1:1 emulsion of bovine type II collagen in Freund’s incomplete adjuvant (Sigma-Aldrich) on day 21. […] On the day treatment was initiated, the mice were randomly assigned to controls (no collagen injection plus vehicle; […]. Mice were scored daily for signs of arthritis for 33 days. CIA development was inspected three times per week, and the inflammation of the four paws was graded from 0 to 4 (grade 0, paws with no swelling or focal redness; grade 1, paws with swelling of finger joints; grade 2, paws with a mild swelling of the ankle or wrist joints; grade 3, paws with severe inflammation of the entire paw; and grade 4, paws with deformity or ankylosis). Each paw was graded, and the four scores were totalled so that the possible maximum score per mouse was 16.
DBA1/J mice were sacrificed on day 33 after treatment and ankle joints were removed and fixed with 4% paraformaldehyde for more than 48 h. The joints were decalcified in EDTA buffer for 21 days and then embedded in paraffin blocks. Joint sections were stained with H&E or safranin O-fast green. Histological changes were examined under microscope using methods modified from McKew et al.[43] as follows: grade 0 = no abnormal findings; grade 1 = synoviocyte hypertrophy, slight synovial membrane fibrosis, slight-to-mild inflammatory cell infiltrates into the synovial membrane/articular capsule and/or joint space; grade 2 = grade 1 plus mild-to-moderate inflammatory cell infiltrates, pannus formation (if present) minimal with superficial cartilage erosion; grade 3 = grade 2 plus marked inflammatory cell infiltrates and fibrosis, mild-to-severe erosion of the cartilage extending into the subchondral bone; and grade 4 = loss of joint integrity through erosion or destruction with bone remodelling, massive inflammatory cell infiltrates, fibrosis, and ankylosis.

[2] = test system: cytokine gene transcription in joint tissue of CIA mice; assay: Cytokine gene expression in joints of CIA mice by RT-PCR; assay type: in vivo, mouse

Compound: C[C@@H]1CCN(C(=O)CC#N)C[C@@H]1N(C)c1ncnc2[nH]ccc12 [Tofacitinib, reference compound]
- group mean histological severity score [1]: 1.8
- IL-10 expression [2]: significantly increased its expression
